Like-named read-outs stand apart in the source and are kept apart here.

For one assay, the system named is STAT6 bla-RA1 cells. Put plainly: STAT6 assay (IL-4 stimulated reporter cells). The class given is cell-based. Conditions: for EC50: interleukin 4 10 ng/mL; for STAT5/STAT6 EC50 ratio (selectivity for STAT6 over STAT5): selectivity for STAT6 over STAT5, from EC50. As for the experimental part: Twenty-five μL of a STAT6 bla-RA1 (Invitrogen # K1243) cell suspension was seeded with a density of 30-40,000 cells/well in 384-well Black View-plates (PerkinElmer #6007460) with clear bottom in assay medium (Opti-MEM (Invitrogen #11058-021)+0.5% heat inactivated fetal bovine Serum (Invitrogen #10082-147)+1% non-essential amino acids (Invitrogen #11140-050)+1% sodium pyruvate (Invitrogen #11360-070)+1% penicillin/streptomycin (Invitrogen #15140-122)); containing 550 ng/mL of CD40 ligand (Invitrogen # PHP0025). The cell plates were incubated overnight in a humidified 37° C. air/CO2 (95%/5%) incubator. The following day, 125 nL of solutions of test compounds and reference compounds were transferred to cell plates using the Labcyte Echo 550 liquid handler. The plates were then incubated for 1 h in a humidified 37° C. air/CO2 (95%/5%) incubator. Hereafter recombinant human interleukin 4 (Invitrogen # PHC0045) were added to the plates also using the Labcyte Echo 550 to a final concentration of 10 ng/mL. The cells were then incubated for 4½-5 h in a humidified 37° C. air/CO2 (95%/5%) incubator. 8 μL of LiveBLAzer substrate mixture (Invitrogen # K1095) were then added to the assay plates, which were incubated overnight at RT. Fluorescence was then measured: Excitation: 405 nm; Emission: 460 nm (green channel), Emission: 535 nm (blue channel). Background was subtracted in both emission channels and the ratio 460/535 nm was calculated for each well.

The target in the next assay is JAK1 (Homo sapiens (Human), UniProt P23458). Put plainly: JAK1 kinase assay (HTRF). The assay is classed as biochemical. Conditions: for JAK2/JAK1 ratio / JAK3/JAK1 ratio: ratio of the respective EC50. As for the experimental part: (§1) Human baculovirus-expressed Janus kinase (JAK) 1, 2, 3 and tyrosin kinase (TYK) 2 were purchased from Carna Biosciences, Inc (#08-144, -045, -046, -147 resp.). All four purified enzymes contain only the catalytic domain. JAK1 (aa 850-1154) and TYK2 (aa 871-1187) are expressed with an N-terminally fused GST-tag, and JAK2 and JAK3 with an N-terminally fused His-tag. Inhibition of phosphorylation of a synthetic peptide was measured in an HTRF-based assay (CisBio #62TKOPEC). First, 75 nL of test compound solution (100% DMSO) was added to a white shallow 384-well plate (NUNC #264706) using a Labcyte ECHO 550 liquid handler. Thereafter, 1 μL of compound dilution buffer (50 mM HEPES, 0.05% bovine serum albumin) and 2 μL of TK solution (TK substrate-biotin in kinase buffer [1× enzymatic buffer from HTRFKinEASE TK kit, 1 mM DTT]) was added. Then, 5 μL kinase-ATP mix (prepared in kinase buffer) was added to the wells and the plates were incubated at RT for 20 (JAK2, 3 and TYK2) to 40 (JAK1) min. For all four kinases a concentration of ATP that corresponded to the Km for ATP was used. The final concentrations of buffers, substrate, kinase and ATP were: JAK1: 50 mM Hepes buffer pH 7.0, 0.01% BSA, 10 mM MgCl2, 1 mM DTT, 7 μM ATP, 50 nM SEB, 1 μM TK Substrate-Biotin and 5 ng/well JAK1; JAK2: 50 mM Hepes buffer pH 7.0, 0.01% BSA, 5 mM MgCl2, 1 mM DTT, 4 μM ATP, 1 μM TK Substrate-Biotin and 0.1 ng/well JAK2; JAK3: 50 mM Hepes buffer pH 7.0, 0.01% BSA, 5 mM MgCl2, 1 mM DTT, 2 μM ATP, 1 μM TK Substrate-Biotin and 0.3 ng/well JAK3; TYK2: 50 mM Hepes buffer pH 7.0, 0.01% BSA, 5 mM MgCl2, 1 mM DTT, 13 μM ATP, 50 nM SEB, 1 μM TK Substrate-Biotin and 0.8 ng/well TYK2. Thereafter, the kinase reaction was stopped by adding 4 μL detection mix (final concentrations: 50 mM Hepes buffer pH 7.0, 0.01% BSA, 0.8 M KF, 20 mM EDTA, 42 nM Streptavidin-XL665 and 1:400 STK Ab Cryptate) and the plates were incubated overnight in the dark. A PerkinElmer Envision reader was used to quantify the HTRF signal using the following filters; 320 nm excitation filter, 665 nm emission filter and a 615 nm 2nd emission filter. A ratio ((665/615)×10^4) was calculated for each well.
JAK1, sequence (P23458 850-1154): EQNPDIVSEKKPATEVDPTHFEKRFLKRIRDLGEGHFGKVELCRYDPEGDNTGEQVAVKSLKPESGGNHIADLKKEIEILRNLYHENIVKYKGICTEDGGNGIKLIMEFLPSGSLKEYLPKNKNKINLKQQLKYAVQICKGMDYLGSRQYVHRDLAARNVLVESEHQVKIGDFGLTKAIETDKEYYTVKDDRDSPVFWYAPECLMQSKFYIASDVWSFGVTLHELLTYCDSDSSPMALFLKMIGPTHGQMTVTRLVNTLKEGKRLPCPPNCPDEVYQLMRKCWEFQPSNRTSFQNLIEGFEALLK
In general terms: TR-FRET usually uses a lanthanide donor and a delayed reading to cut background.

The target in the next assay is JAK3 (Homo sapiens (Human), UniProt P52333). As to the kind of experiment: JAK3 kinase assay (HTRF). The class given is biochemical. How it is done: as §1
JAK3, sequence (P52333 822-1111): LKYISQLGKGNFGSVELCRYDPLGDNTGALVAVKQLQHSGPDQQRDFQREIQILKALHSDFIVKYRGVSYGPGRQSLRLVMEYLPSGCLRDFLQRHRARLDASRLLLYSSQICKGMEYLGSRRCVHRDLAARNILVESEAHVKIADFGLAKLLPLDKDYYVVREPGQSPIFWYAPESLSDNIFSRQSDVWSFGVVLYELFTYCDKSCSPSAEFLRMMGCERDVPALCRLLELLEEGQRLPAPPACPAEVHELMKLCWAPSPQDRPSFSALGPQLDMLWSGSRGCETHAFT
The target in the next assay is JAK2 (Homo sapiens (Human), UniProt O60674). As to the kind of experiment: JAK2 kinase assay (HTRF). Conditions: ATP at Km (4 μM). The assay is classed as biochemical. How it is done:
as §1

The test system of a further assay is STAT5 irfl-bla TF1 cells. Put plainly: STAT5 assay (EPO stimulated reporter cells). Conditions: Homo sapiens, TF-1; erythropoietin (EPO) 10 ng/mL. The assay is classed as cell-based. How it is done:
Twenty-five μL of a STAT5 irfl-bla TF1 (Invitrogen # K1219) cell suspension was seeded with a density of about 10,000 cells/well in 384-well Black View-plates (PerkinElmer #6007460) with clear bottom in assay medium (Opti-MEM (Invitrogen #11058-021)+0.5% heat inactivated fetal bovine Serum (Invitrogen #10082-147)+1% non-essential amino acids (Invitrogen #11140-050)+1% sodium pyruvate (Invitrogen #11360-070)+1% penicillin/streptomycin (Invitrogen #15140-122)). The cell plates were incubated overnight in a humidified 37° C. air/CO2 (95%/5%) incubator. The following day, 125 nL of solutions of test compounds and reference compounds were transferred to cell plates using the Labcyte Echo 550 liquid handler. The plates were then incubated for 1 h in a humidified 37° C. air/CO2 (95%/5%) incubator. Hereafter recombinant human erythropoietin (EPO) (Invitrogen # PHC9634) was added to the plates also using the Labcyte Echo 550 to a final concentration of 10 ng/mL. The cells were then incubated for 4½-5 h in a humidified 37° C. air/CO2 (95%/5%) incubator. 8 μL of LiveBLAzer substrate mixture (Invitrogen # K1095) were then added to the assay plates, which were then incubated overnight at RT. Fluorescence was then measured: Excitation: 405 nm; Emission: 460 nm (green channel), Emission: 535 nm (blue channel). Background was subtracted in both emission channels and the ratio 460/535 nm was calculated for each well.

A further assay has as its target TYK2 (Homo sapiens (Human), UniProt P29597). Put plainly: TYK2 kinase assay (HTRF). The assay is classed as biochemical. How it is done: as §1

JAK2, sequence (O60674 849-1124): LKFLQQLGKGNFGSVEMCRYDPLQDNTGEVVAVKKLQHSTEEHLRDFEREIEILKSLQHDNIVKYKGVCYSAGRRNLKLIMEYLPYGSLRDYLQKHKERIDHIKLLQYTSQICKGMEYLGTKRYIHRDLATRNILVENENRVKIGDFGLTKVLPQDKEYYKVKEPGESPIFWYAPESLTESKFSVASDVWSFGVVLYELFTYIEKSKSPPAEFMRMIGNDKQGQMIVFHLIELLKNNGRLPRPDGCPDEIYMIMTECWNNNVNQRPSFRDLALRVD
TYK2, sequence (P29597 871-1187): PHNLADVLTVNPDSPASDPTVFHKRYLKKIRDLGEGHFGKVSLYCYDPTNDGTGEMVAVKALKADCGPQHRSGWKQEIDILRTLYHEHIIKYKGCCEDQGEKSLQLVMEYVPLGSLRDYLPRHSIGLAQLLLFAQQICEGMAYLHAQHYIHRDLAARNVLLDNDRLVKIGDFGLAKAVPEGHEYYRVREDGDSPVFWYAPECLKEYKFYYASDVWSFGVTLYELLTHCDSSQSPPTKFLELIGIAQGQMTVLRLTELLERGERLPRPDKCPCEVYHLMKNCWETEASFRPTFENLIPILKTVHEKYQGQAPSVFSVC

What is called EC50 is the concentration at which the effect is half-maximal. The low end stands for greater potency, the high end for weaker potency. `[2H]C([2H])([2H])Nc1cc2c(cn1)nc([C@@H](C)O)n2[C@H]1CC[C@H](CC#N)CC1` [Example 4, trans-2-[4-[2-[(1R)-1-Hydroxyethyl]-6-(trideuteriomethylamino)imidazo[4,5-c]pyridin-1-yl]cyclohexyl]acetonitrile]: the EC50 with STAT6 bla-RA1 cells was determined as 141 nM; at JAK1 it was 3.46 nM; at JAK3 it was 2.31 µM; at JAK2, 153 nM; in the assay with STAT5 irfl-bla TF1 cells, 7.08 µM; on TYK2, 43 nM. The “STAT5/STAT6 EC50 ratio (selectivity for STAT6 over STAT5)” value with STAT6 bla-RA1 cells stood at 50. In addition, the JAK2/JAK1 ratio at JAK1 was 44. The JAK3/JAK1 ratio on JAK1 was determined as 668.
Regarding `CNc1cc2c(cn1)nc(C(C)O)n2[C@H]1CC[C@H](CC#N)CC1` (stereo partly drawn) [Example 1, trans-2-[4-[2-[1-Hydroxyethyl]-6-(methylamino)imidazo[4,5-c]pyridin-1-yl]cyclohexyl]acetonitrile], the EC50 stood at 237 nM with STAT6 bla-RA1 cells; 10.8 nM on JAK1 (ATP at Km (7 μM)); 5.26 µM on JAK3 (ATP at Km (2 μM)); 530 nM on JAK2; 14.6 µM in the assay on STAT5 irfl-bla TF1 cells; 111 nM on TYK2 (ATP at Km (13 μM)). For the same compound, the “STAT5/STAT6 EC50 ratio (selectivity for STAT6 over STAT5)” value with STAT6 bla-RA1 cells is given as 62. Besides, the JAK2/JAK1 ratio on JAK1 stood at 49. Besides, the JAK3/JAK1 ratio at JAK1 came out at 487.
For the compound `CNc1cc2c(cn1)nc(C(C)O)n2[C@H]1CC[C@@H](CC#N)CC1` (stereo partly drawn) [Example 6, cis-2-[4-[2-[1-Hydroxyethyl]-6-(methylamino)imidazo[4,5-c]pyridin-1-yl]cyclohexyl]acetonitrile], the EC50 with STAT6 bla-RA1 cells is 8570 nM; on JAK1 (ATP at Km (7 μM)), 508 nM; at JAK3 (ATP at Km (2 μM)), 2.87 µM; on JAK2, 2640 nM; in the assay on STAT5 irfl-bla TF1 cells it was greater than 49.8 µM; on TYK2 (ATP at Km (13 μM)) it was 1110 nM. Moreover, in the assay with STAT6 bla-RA1 cells, the “STAT5/STAT6 EC50 ratio (selectivity for STAT6 over STAT5)” value is greater than 5.8. The JAK2/JAK1 ratio at JAK1 is 5.2. For the same compound, the JAK3/JAK1 ratio on JAK1 is listed as 5.6.
Take `CNc1cc2c(cn1)nc([C@@H](C)O)n2[C@H]1CC[C@@H](CC#N)CC1` [Example 7, cis-2-[4-[2-[(1R)-1-Hydroxyethyl]-6-(methylamino)imidazo[4,5-c]pyridin-1-yl]cyclohexyl]acetonitrile]: the EC50 in the assay with STAT6 bla-RA1 cells is 3460 nM; at JAK1 (ATP at Km (7 μM)), 129 nM; on JAK3 (ATP at Km (2 μM)), 1.01 µM; at JAK2, 981 nM; in the assay with STAT5 irfl-bla TF1 cells, greater than 49.8 µM; on TYK2 (ATP at Km (13 μM)), 443 nM. For the same compound, the “STAT5/STAT6 EC50 ratio (selectivity for STAT6 over STAT5)” value in the assay with STAT6 bla-RA1 cells is listed as greater than 14. Moreover, on JAK1, the JAK2/JAK1 ratio is given as 7.6. Besides, the JAK3/JAK1 ratio at JAK1 came to 7.8.
For `CNc1cc2c(cn1)nc([C@H](C)O)n2[C@H]1CC[C@H](CC#N)CC1` [Example 2, trans-2-[4-[2-[(1S)-1-Hydroxyethyl]-6-(methylamino)imidazo[4,5-c]pyridin-1-yl]cyclo-hexyl]acetonitrile], the EC50 is 1160 nM in the assay with STAT6 bla-RA1 cells; 44.4 nM at JAK1; 9.82 µM on JAK3; 1130 nM on JAK2; greater than 42.6 µM in the assay on STAT5 irfl-bla TF1 cells; 466 nM on TYK2. Moreover, the “STAT5/STAT6 EC50 ratio (selectivity for STAT6 over STAT5)” value with STAT6 bla-RA1 cells is given as greater than 37. Further, the JAK2/JAK1 ratio at JAK1 turned out to be 25. Further, the JAK3/JAK1 ratio at JAK1 is recorded as 221.
On to `[2H]C([2H])([2H])C([2H])(O)c1nc2cnc(NC)cc2n1[C@H]1CC[C@H](CC#N)CC1` (stereo partly drawn) [Example 5, trans-2-[4-[2-[1,2,2,2-Tetradeuterio-1-hydroxyethyl]-6-(methylamino)imidazo[4,5-c]pyridin-1-yl]cyclohexyl]acetonitrile], for which the EC50 with STAT6 bla-RA1 cells came out at 270 nM; on JAK1, 8.41 nM; on JAK3 it was 3.2 µM; on JAK2, 301 nM; in the assay on STAT5 irfl-bla TF1 cells it was 9.24 µM; on TYK2, 102 nM. For the same compound, the “STAT5/STAT6 EC50 ratio (selectivity for STAT6 over STAT5)” value in the assay with STAT6 bla-RA1 cells was 34. The JAK2/JAK1 ratio at JAK1 is on record as 36. The JAK3/JAK1 ratio at JAK1 is listed as 380.

The values are drawn from patent publication US10703751B2, “Amino-imidazopyridine derivatives as Janus kinase inhibitors and pharmaceutical use thereof” (LEO Pharma A/S, priority 2017, dated 2020).
